{"source": "patent US10457637B2", "about": "“Benzenesulfonamide derivatives as inverse agonists of retinoid-related orphan receptor gamma (RORγ(T))” (GALDERMA RESEARCH & DEVELOPMENT, priority 2014, dated 2019)", "type_in_all_cases": "cell-based", "key": {"[1]": {"tested_on": "IL-17A secretion by CD4+ cells", "assay": "IL-17A secretion by CD4+ cells (HTRF)", "settings": "96 h; human CD4+ cells activated with anti-CD3 and anti-CD28, 4 days of incubation; read-out: IC50 hCD4/IL17", "protocol": "This model allows measurement of the effect of inhibitors on IL-17A secretion by CD4+ cells. […] The amount of IL-17a secreted is measured by the TR-FRET (kit HTRF® Human Interleukin 17A (Cisbio, #64H17PEC)) technology.\nThe cells are rapidly thawed, resuspended in their culture medium (RPMI inactivated 10% FCS) supplemented with soluble anti-CD28 antibodies and seeded (100 000 cells/well) in 96-well plates precoated with anti-CD3 antibodies. The cells are then treated with the ranges of inhibitors to be tested (from 1000 nM to 0.05 nM, 0.1% DMSO). […] The IC50 values are calculated from a 4-parameter logistic model using the XLFit software (IDBS)."}, "[2]": {"biological_target": "ROR gamma ligand-binding domain (hRORg) (Homo sapiens (Human), UniProt P51449)", "sequence (P51449 269-508)": "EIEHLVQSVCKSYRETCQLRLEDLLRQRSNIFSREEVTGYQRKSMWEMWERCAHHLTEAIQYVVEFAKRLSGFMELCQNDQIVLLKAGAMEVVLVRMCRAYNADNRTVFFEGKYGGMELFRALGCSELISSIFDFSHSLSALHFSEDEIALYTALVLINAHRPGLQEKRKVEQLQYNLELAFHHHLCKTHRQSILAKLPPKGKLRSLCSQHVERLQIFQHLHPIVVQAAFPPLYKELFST", "assay": "GAL4-RORγ transactivation (luciferase reporter, HG5LN HeLa line)", "settings": "18 hours incubation", "procedure,_shortened": "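HeLa-derived HG5LN cells stably expressing GAL4 DBD fused to human RORγ LBD with GAL4-driven luciferase reporter; inhibition of constitutive activity lowers luminescence.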"}, "[3]": {"biological_target": "hERG (Homo sapiens (Human), UniProt Q12809)", "sequence (Q12809 whole entry)": "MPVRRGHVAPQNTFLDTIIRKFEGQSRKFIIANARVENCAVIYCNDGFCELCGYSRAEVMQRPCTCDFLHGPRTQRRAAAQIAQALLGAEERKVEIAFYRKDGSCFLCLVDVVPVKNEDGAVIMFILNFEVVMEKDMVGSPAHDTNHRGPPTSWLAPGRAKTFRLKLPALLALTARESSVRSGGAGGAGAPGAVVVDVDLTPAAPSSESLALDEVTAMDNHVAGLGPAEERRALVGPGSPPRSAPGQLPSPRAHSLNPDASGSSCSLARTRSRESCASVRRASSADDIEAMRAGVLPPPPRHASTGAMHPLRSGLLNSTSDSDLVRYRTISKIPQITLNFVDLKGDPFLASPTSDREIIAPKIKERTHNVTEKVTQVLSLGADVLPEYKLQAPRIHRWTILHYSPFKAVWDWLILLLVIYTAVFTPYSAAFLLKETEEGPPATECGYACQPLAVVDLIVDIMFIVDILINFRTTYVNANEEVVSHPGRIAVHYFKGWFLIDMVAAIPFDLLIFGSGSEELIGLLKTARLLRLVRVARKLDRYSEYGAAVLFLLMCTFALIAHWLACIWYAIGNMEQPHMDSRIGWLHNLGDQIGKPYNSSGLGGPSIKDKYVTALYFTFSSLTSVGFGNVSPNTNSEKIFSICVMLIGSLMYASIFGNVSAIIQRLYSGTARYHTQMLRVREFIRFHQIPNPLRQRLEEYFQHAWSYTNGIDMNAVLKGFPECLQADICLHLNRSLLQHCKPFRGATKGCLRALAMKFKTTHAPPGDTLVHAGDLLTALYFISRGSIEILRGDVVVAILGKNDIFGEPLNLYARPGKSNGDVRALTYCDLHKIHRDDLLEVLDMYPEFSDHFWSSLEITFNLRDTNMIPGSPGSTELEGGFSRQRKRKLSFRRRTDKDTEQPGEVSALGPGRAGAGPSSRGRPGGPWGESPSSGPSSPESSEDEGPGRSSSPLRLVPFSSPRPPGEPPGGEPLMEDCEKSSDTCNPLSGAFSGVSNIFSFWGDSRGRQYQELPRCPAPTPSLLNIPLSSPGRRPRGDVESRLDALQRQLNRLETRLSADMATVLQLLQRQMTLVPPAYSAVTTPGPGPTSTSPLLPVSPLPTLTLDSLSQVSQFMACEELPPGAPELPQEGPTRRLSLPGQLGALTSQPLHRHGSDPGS", "assay": "hERG test, patch clamp on CHO-K1 cells", "settings": "CHO-K1 cells transfected with the hERG gene", "description": "In the table below, the median inhibitory concentrations IC50 for the compounds belonging to formula (I) according to the invention have been given in accordance with the hERG test.\nThe hERG test makes it possible to study a gene which codes for a protein required for the functioning of heart tissue potassium channels. The patch clamp method on CHO-K1 cells (cells transfected with the hERG gene which has K+ ion activity on the membranes) is used for in vitro prediction of the blocking of hERG (human Ether-a-go-go Related).\nThe extracellular solution (control) is applied first. The cells (Chinese hamster ovarian cells expressing the Human Ether-a-go-go Related Gene) are stabilized with the extracellular solution for 5 minutes. The cells are incubated for 5 minutes with the molecules from the weakest to the strongest concentration at 0.6% DMSO final.\nThe result is expressed in the form of an IC50 value in μM."}}, "data": [{"compound": "CCc1ccc(N(CC(C)C)S(=O)(=O)c2ccc(NCC3CC(O)C3)c(S(C)(=N)=O)c2)cc1", "note": "(stereo not shown) [compound 61, N-(4-ethylphenyl)-4-(((3-hydroxycyclobutyl)methyl)amino)-N-isobutyl-3-(S-methylsulfonimidoyl)benzenesulfonamide]", "values": [{"measurement": "IC50", "setting": "[1]", "value": "< 0.1", "unit": "µM"}, {"measurement": "IC50", "setting": "[2]", "value": "< 0.1", "unit": "µM"}, {"measurement": "IC50", "setting": "[3]", "value": 25.7, "unit": "µM"}]}, {"compound": "CCc1ccc(N(CC(C)C)S(=O)(=O)c2ccc(OCC3CCSCC3)c(S(C)(=N)=O)c2)cc1", "note": "(stereo not shown) [compound 37]", "values": [{"measurement": "IC50 at 5 min", "setting": "[3]; human", "value": 11.8, "unit": "µM"}]}, {"compound": "CCc1ccc(N(CC(C)C)S(=O)(=O)c2ccc(OC[C@H]3[C@@H]4COC[C@@H]43)c(S(C)(=N)=O)c2)cc1", "note": "(stereo partly drawn) [compound 35, 4-(((1R,5S,6R)-3-oxabicyclo[3.1.0]hexan-6-yl)methoxy)-N-(4-ethylphenyl)-N-isobutyl-3-(S-methylsulfonimidoyl)benzenesulfonamide]", "values": [{"measurement": "IC50", "setting": "[2]", "value": "< 0.1", "unit": "µM"}, {"measurement": "IC50", "setting": "[3]", "value": "> 30", "unit": "µM"}]}, {"compound": "CCc1ccc(N(CC(C)C)S(=O)(=O)c2ccc(OCC3CCOCC3)c([S@@](C)(=N)=O)c2)cc1", "note": "(single isomer, unassigned) [compound 8, N-(4-ethylphenyl)-N-isobutyl-3-methanesulfoximino-4-(tetrahydropyran-4-ylmethoxy)benzenesulfonamide]", "values": [{"measurement": "IC50", "setting": "[1]", "value": "< 0.1", "unit": "µM"}, {"measurement": "IC50", "setting": "[3]", "value": "> 30", "unit": "µM"}]}, {"compound": "CCc1ccc(N(CC(C)C)S(=O)(=O)c2ccc(N(C)CC3CCOCC3)c(S(C)(=N)=O)c2)cc1", "note": "(stereo not shown) [compound 53, N-(4-ethylphenyl)-N-isobutyl-4-(methyl((tetrahydro-2H-pyran-4-yl)methyl)amino)-3-(S-methylsulfonimidoyl)benzenesulfonamide]", "values": [{"measurement": "IC50", "setting": "[1]", "value": "< 0.1", "unit": "µM"}, {"measurement": "IC50", "setting": "[3]", "value": 11.8, "unit": "µM"}]}, {"compound": "CCc1ccc(N(CC(C)C)S(=O)(=O)c2ccc(OCC3CCOCC3)c(S(C)(=N)=O)c2)cc1", "note": "(racemic) [compound 26, N-(4-ethylphenyl)-N-isobutyl-3-methanesulfonoximino-4-(tetrahydropyran-4-ylmethoxy)benzenesulfonamide]", "values": [{"measurement": "IC50", "setting": "[1]", "value": "< 0.1", "unit": "µM"}, {"measurement": "IC50", "setting": "[3]", "value": "> 30", "unit": "µM"}]}, {"compound": "CCc1ccc(N(CC(C)C)S(=O)(=O)c2ccc(NCC3(C)CCOCC3)c(S(C)(=N)=O)c2)cc1", "note": "(stereo not shown) [compound 55, N-(4-ethylphenyl)-N-isobutyl-3-(S-methylsulfonimidoyl)-4-(((4-methyltetrahydro-2H-pyran-4-yl)methyl)amino)benzenesulfonamide]", "values": [{"measurement": "IC50", "setting": "[1]", "value": "< 0.1", "unit": "µM"}, {"measurement": "IC50", "setting": "[3]", "value": 14.1, "unit": "µM"}]}, {"compound": "CCc1ccc(N(CC(C)C)S(=O)(=O)c2ccc(NCC3(F)CCOCC3)c(S(C)(=N)=O)c2)cc1", "note": "(stereo not shown) [compound 62, N-(4-ethylphenyl)-4-(((4-fluorotetrahydro-2H-pyran-4-yl)methyl)amino)-N-isobutyl-3-(S-methylsulfonimidoyl)benzenesulfonamide]", "values": [{"measurement": "IC50", "setting": "[1]", "value": "< 0.1", "unit": "µM"}, {"measurement": "IC50", "setting": "[3]", "value": 16.4, "unit": "µM"}]}, {"compound": "CCc1ccc(N(CC(C)C)S(=O)(=O)c2ccc(N3CC(O)C3)c(S(C)(=N)=O)c2)cc1", "note": "(stereo not shown) [compound 131, N-(4-ethylphenyl)-4-(3-hydroxyazetidin-1-yl)-N-isobutyl-3-(S-methylsulfonimidoyl)benzenesulfonamide]", "values": [{"measurement": "IC50", "setting": "[1]", "value": "> 1", "unit": "µM"}, {"measurement": "IC50", "setting": "[2]", "value": "> 1", "unit": "µM"}]}, {"compound": "CCc1ccc(N(CC(C)C)S(=O)(=O)c2ccc(OCC3CCOCC3)c([S@](C)(=N)=O)c2)cc1", "note": "[compound 7, N-(4-ethylphenyl)-N-isobutyl-3-methanesulfoximino-4-(tetrahydropyran-4-ylmethoxy)benzenesulfonamide]", "values": [{"measurement": "IC50", "setting": "[1]", "value": "< 0.1", "unit": "µM"}, {"measurement": "IC50", "setting": "[3]", "value": "> 30", "unit": "µM"}]}, {"compound": "CCc1ccc(N(CC(C)C)S(=O)(=O)c2ccc(NC[C@@H]3[C@H]4COC[C@@H]34)c(S(C)(=N)=O)c2)cc1", "note": "(stereo partly drawn) [compound 91, 4-((((1R,5S,6S)-3-oxabicyclo[3.1.0]hexan-6-yl)methyl)amino)-N-(4-ethylphenyl)-N-isobutyl-3-(S-methylsulfonimidoyl)benzenesulfonamide]", "values": [{"measurement": "IC50", "setting": "[1]", "value": "< 0.1", "unit": "µM"}, {"measurement": "IC50", "setting": "[2]", "value": "< 0.1", "unit": "µM"}]}]}
